Source: patent US20120328536A1, “Taste Improving Substances” (QUEST INTERNATIONAL SERVICES B.V., priority 2006, published 2012)

Tests used:
[1] = Tasting of menthol fondant by a professional panel; conditions: 50 ppm in fondant with 2500 ppm menthol
Experimental: Two samples of fondant were prepared by mixing 65 Fondacreme (ex Belgosuc NV Belgium) with 35% sugar syrup (67° Brix). 2500 Ppm menthol was added as a 50% solution in propylene glycol. To a first sample (sample A), 50 ppm of N-(2-hydroxyethyl) 5-hydroxyhexanoyl amide (as prepared in example 1) was added. The second sample was the reference sample. The Samples were tasted by a professional panel.

[2] = Tasting of NaCl/MSG/pepper oleoresin solution by a professional panel; conditions: 50 ppm in 0.6% NaCl, 0.03% MSG, 4 ppm pepper oleoresin
Experimental: Two solutions of 0.6% NaCl and 0.03% MSG and 4 ppm pepper oleoresin (ex Warner Jenkinson, St Louis, USA) were prepared. To one sample (sample A), 50 ppm of N-(2-hydroxyethyl) 5-hydroxyhexanoyl amide (as prepared in example 1) was added. The other sample was used as the reference. Both samples were tasted by a professional panel.

[3] = Tasting of 3% alcohol in water by a professional panel; conditions: 50 ppm in 3% alcohol in water
Experimental: Two solutions of 3% alcohol in water were prepared. To one sample (sample A), 50 ppm of N-(2-hydroxyethyl) 5-hydroxyhexanoyl amide (as prepared in example 1) was added. The other sample was used as the reference sample. Both samples were tasted by a professional panel.

[4] = Tasting of Odol mouthwater by a professional panel; conditions: 50 ppm in Odol mouthwater
Experimental: Commercially available Odol mouthwater (GlaxoSmithKline) was obtained from a local pharmacy and 4 solutions were prepared.
To a first sample (sample A), 50 ppm of N-(2-hydroxyethyl) 5-hydroxyhexanoyl amide (as prepared in example 1) was added. Samples A was tasted by a professional panel and compared with the mouthwater without added N-(2-hydroxyethyl) 5-hydroxyhexanoyl amide.

[5] = Tasting of toothpaste by a professional panel; conditions: 50 ppm in commercial toothpaste
Experimental: Commercially available toothpaste was obtained from a local pharmacy and 4 samples of paste were prepared.
To a first sample (sample A), 50 ppm of N-(2-hydroxyethyl) 5-hydroxyhexanoyl amide (as prepared in example 1) was added and homogenized. Samples A was tasted by a professional panel and compared with the toothpaste without added N-(2-hydroxyethyl) 5-hydroxyhexanoyl amide.

N-(2-hydroxyethyl) 5-hydroxyhexanoyl amide
cooling compared with the reference sample [1]: more intense cooling than the reference sample
onset and location of the cooling effect [1]: its effect is immediate and through the whole oral cavity
after-taste compared to the reference sample [2]: more a hot, tingling after-taste
initial hotness compared to the reference sample [2]: initial hotness was increased
alcohol impression compared to the reference sample [3]: alcohol-boosting effect
ethanol water mixture that the sample tasted like [3]: 5-6%
cooling in the oral cavity [4]: more aggressive cooling in the whole oral cavity
initial cooling and mouth-coating [4]: more initial cooling and more mouth-coating
overall impact compared with mouthwater without the amide [4]: stronger overall impact
cooling in the oral cavity [5]: more aggressive cooling in the whole oral cavity
initial cooling and mouth-coating [5]: more initial cooling and more mouth-coating
overall impact compared with the reference sample [5]: stronger overall impact
